From patent US20090203692A1, “NOVEL CHEMICAL COMPOUNDS” (SMITHKLINE BEECHAM CORPORATION, priority 2005, published 2009)

Target: T1, hYAK3 (Homo sapiens, UniProt O43781)
T1 construct: GST (N); His6 (C); made in house; host or cells: baculovirus expression system in Sf9 cells
T1 sequence (O43781 142-526): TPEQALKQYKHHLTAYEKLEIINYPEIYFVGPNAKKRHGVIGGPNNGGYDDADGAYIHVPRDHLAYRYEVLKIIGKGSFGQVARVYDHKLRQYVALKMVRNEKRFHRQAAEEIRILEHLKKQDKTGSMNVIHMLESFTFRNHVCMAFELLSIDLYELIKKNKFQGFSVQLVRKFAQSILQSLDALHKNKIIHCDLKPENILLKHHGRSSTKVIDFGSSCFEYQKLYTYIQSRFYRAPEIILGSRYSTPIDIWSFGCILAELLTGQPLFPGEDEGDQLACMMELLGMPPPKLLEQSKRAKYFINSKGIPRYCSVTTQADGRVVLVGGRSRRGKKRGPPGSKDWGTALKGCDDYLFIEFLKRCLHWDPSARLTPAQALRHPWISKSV
Assay: YAK3 Scintillation Proximity Assay using Ser164 of myelin basic protein as the phosphoacceptor (kinase assay of purified hYAK3)
Format: biochemical
Conditions: purified GST-hYak3-His6 4 nM; 1 μM ATP; 4 μM Ser164 peptide; 2 hours at room temperature; pIC50=-Log10(K)
Procedure: Substrate phosphorylation assays were carried out as follows:
YAK3 Scintillation Proximity Assays Using Ser164 of Myelin Basic Protein as the Phosphoacceptor
The source of Ser164 substrate peptide The biotinylated Ser164, S164A peptide(LGGRDSRAGS*PMARRKK-ahx-Biotin-Amide), sequence derived from the C-terminus of bovine myelin basic protein (MBP) with […] substituted as Ala 162, was purchased from California Peptide Research Inc. (Napa, Calif.), and its purity was determined by HPLC. Phosphorylation occurs at position 164 (marked S* above). The calculated molecular mass of the peptide is 2166 dalton. Solid sample was dissolved at 10 mM in DMSO, aliquoted, and stored at −20 C until use. […]
Kinase assay of purified hYAK3: Assays were performed in 96 well (Costar, Catalog No. 3789) or 384 well plates (Costar, Catalog No. 3705). […] Compounds, titrated in DMSO, were evaluated at concentrations ranging from 50 μM to 0.2 nM. […]
The data for compound dose responses were plotted as % Inhibition, calculated with the data reduction formula 100*(1−[(U1−C2)/(C1−C2)]), versus concentration of compound, where U is the unknown value, C1 is the average control value obtained for DMSO, and C2 is the average control value obtained for 0.05M EDTA. […] The results for each compound were recorded as pIC50 calculated as follows: pIC50=−Log 10(K).

## O=C1N=C(Nc2cccnc2Cl)S/C1=C\c1ccc2ncccc2c1 [Example 1, (5Z)-2-[(2-Chloro-3-pyridinyl)amino]-5-(6-quinolinylmethylidene)-1,3-thiazol-4(5H)-one]
  IC50: 1.58 nM
